Legend:
LNCaP cell line = test: Cell cycle and apoptosis of LNCaP cells (flow cytometry); assay type: cell-based
Experimental: calculating volume (V= 0.5 × L × W2). Finally, the mice were sacrificed and the tumors were harvested for hematoxylin and eosin (H&E) staining.
Luciferase Reporter Assays for PR, GR, and MR
PC3, HeLa, and HEK293T cells were cultured using 5% CSS RPMI-1640, 5% CSS RPMI-1640 and 10% FBS DMEM media in 96-well plates for 24 h, respectively. For PR induction, PC3 (1 × 10^4 cells/well) were transfected with 50 ng pcDNA3-PRB (#89130, Addgene), 24 ng pGL4.36[luc2P MMTV Hygro] (Promega) and 5 ng Renilla using HG-TransGeneTM transfection reagent (#TG-10012, Genomeditech) for 4 h. […] The luciferase activities were assessed using the Dual-Glo Luciferase system (#E1910, Promega). […]
Cell cycle were determined after 48 h incubation by Cell Cycle Staining Kit (#CCS012, MULTI SCIENCES) using […]
Cytomic FC 500MCL flow cytometer (Beckman Coulter, Inc). Cell apoptosis were determined after 24 h incubation by Annexin V-FITC/PI apoptosis kit (#AP101, MULTI SCIENCES) using BD FACS S ORP ARIA II flow cytometer (BD Biosciences).
Graphpad Prism (v.8.4) program was adopted for statistical analysis and data were presented as the mean ± standard error of mean (SEM). The value of p was determined on the basis of at least three independent assays using Student’s t-test, one-way ANOVA or two-way ANOVA analysis.

[1] = test system: PSA, CDC20, CENPF, MKI67 mRNA in LNCaP cells; test: Quantitative PCR in LNCaP cells; assay type: cell-based; conditions: for mRNA expression of PSA: LNCaP, 0.1, 1 μM, 5 nM DHT; for mRNA expressions of CDC20, CENPF and MKI67: LNCaP, compared with DHT
Experimental: Quantitative PCR (qPCR) for PSA, CDC20, CENPF, MKI67
LNCaP cells were cultured in medium containing 5% CSS in six -well plates and treated […]
where 5 nM DHT and DMSO were separately used in parallel as controls. After 48 h incubation, EZ-10 DNAaway RNA Mini -Preps Kit (Sangon Biotech) and Hifair® Ⅲ 1st Strand cDNA Synthesis SuperMix for qPCR (YEASEN) were employed for mRNA extraction and cDNA preparation, respectively. Then, the PCR SYBR Green Master Mix (YEASEN) was employed to amplify cDNA using the prime pairs in Table S5 . […]

[2] = test system: secreted PSA from LNCaP cells; test: Secreted prostate-specific antigen (PSA) assay; assay type: cell-based; conditions: for IC50: Homo sapiens, read-out: IC50, PSA levels secreted in the cellular media
Experimental: Secreted Prostate-Specific Antigen (PSA) Assay
After the AR transcriptional activity assay was completed, 300 μl of the media
supernatant including the secreted PSA was measured using […]® 2000 XPi
Immunoassay System (Siemens Ltd., Erlangen, Germany). […]

[3] = test system: subcutaneous xenografts of LNCaP cells; test: LNCaP mouse xenograft study, intratumor injection; assay type: in vivo; conditions: 2.5 mg/kg/week; for tumor growth inhibition (TGI): LNCaP xenograft in CB17 SCID mice; for tumor volume and weight: versus vehicle
Experimental: The animal protocols were in accordance with the guidelines of the Animal Welfare Council of China, and were performed by KCBIO company (Chengdu, China). All animal use and studies were performed in compliance with all relevant ethical regulations, and were approved by the Institutional Animal Care and Use Committee (IACUC) at Kangcheng Biotechnology Co., Ltd, Sichuan, China (IACUC-202010-m-001). In brief, male CB17 SCID mice (6-8 weeks old) were housed at a constant room temperature and fed a standard rodent diet and allowed free access to water. LNCaP cells (1 × 107) suspended in 0.1 ml PBS were injected subcutaneously into the right flank of eac h CB17 SCID mice. Once tumor size reached an average tumor volume of 110 mm 3, the mice were randomized into three groups with 6 mice per group, and then intratumor injection […]
The tumor volumes were estimated by measuring length (L) and width (W) and […]
calculating volume (V= 0.5 × L × W2). Finally, the mice were sacrificed and the tumors were harvested for hematoxylin and eosin (H&E) staining. […]
Addgene), 24 ng pGL4.36[luc2P MMTV Hygro] […]
For the antagonistic models, 10 nM /well progesterone for PC3 cells , 1 nM/well dexamethasone for HeLa, and 5 nM/well aldosterone for HEK293T cells were added to stimulate the cells. Meanwhile, each cell line was treated with a series concentration of compounds (0.4, 2, and 10 μM). For the agonistic models, the cells were directly treated with the compounds without any hormones. […]
Luciferase system (#E1910, Promega).
Cell Cycle and Apoptosis for LNCaP cells […]
48 h incubation by Cell Cycle Staining Kit (#CCS012, MULTI SCIENCES) using […]

Row | Structure (SMILES) | impact on cell cycle and apoptosis (LNCaP cell line) | mRNA expression of PSA [1] | mRNA expressions of CDC20, CENPF and MKI67 [1] | inhibition of the secretion of PSA [2] | IC50 [2] | tumor growth inhibition (TGI) [3] | tumor volume and weight [3]
1 | CC(=O)Cc1nsc(NC(=O)c2cc(-c3cccc(C(F)(F)F)c3)oc2C)n1 [Compound M17-B15] | do not show an obvious impact | inhibited | significantly reduces | dose-dependent | 350 nM | 83.59% | significantly inhibited
2 | CNC(=O)c1ccc(N2C(=S)N(c3ccc(C#N)c(C(F)(F)F)c3)C(=O)C2(C)C)cc1F [Enz, enzalutamide, reference compound] | do not show an obvious impact | inhibited | significantly reduces | – | 180 nM | 51.35% | significantly inhibited
